From ChEMBL document CHEMBL1156824, “Physicochemical space for optimum oral bioavailability: contribution of human intestinal absorption and first-pass elimination” (J Med Chem, 2010)

Experiments:
Homo sapiens [1] = experiment: Oral bioavailability in human; conditions: in vivo
Homo sapiens [2] = species on record: Homo sapiens; experiment: Hepatic clearance in human; conditions: in vivo
clinical = conditions: human, in vivo
Homo sapiens [3] = species on record: Homo sapiens; experiment: Fraction escaping hepatic elimination in human; conditions: in vivo
[4] = Volume of distribution at steady state in human; conditions: in vivo

CCCc1nc2c(C)cc(-c3nc4ccccc4n3C)cc2n1Cc1ccc(-c2ccccc2C(=O)O)cc1
F_fraction (Homo sapiens [1]): 0.43 | CL (Homo sapiens [2]): 8.3 mL/min/kg | CL renal (clinical): 0.1 mL/min/kg

CC(C)(C)NC(=O)[C@@H]1C[C@@H]2CCCC[C@@H]2CN1C[C@@H](O)[C@H](Cc1ccccc1)NC(=O)[C@H](CC(N)=O)NC(=O)c1ccc2ccccc2n1
Fh (Homo sapiens [3]): 0.45

CNS(=O)(=O)Cc1ccc2[nH]cc(CCN(C)C)c2c1
F_fraction (Homo sapiens [1]): 0.14 | CL (Homo sapiens [2]): 15.3 mL/min/kg

CCCc1nc(C)c2c(=O)[nH]c(-c3cc(S(=O)(=O)N4CCN(CC)CC4)ccc3OCC)nn12
Vd [4]: 3 L/kg

CCCC(=O)Nc1ccc(OCC(O)CNC(C)C)c(C(C)=O)c1 (stereo not drawn) [ACEBUTOLOL]
F_fraction (Homo sapiens [1]): 0.5

CC(=O)Nc1ccc(O)cc1 [ACETAMINOPHEN]
Vd [4]: 1 L/kg

CN(C)Cc1nnc2n1-c1ccc(Cl)cc1C(c1ccccc1)=NC2 [ADINAZOLAM]
F_fraction (Homo sapiens [1]): 0.39 | CL (Homo sapiens [2]): 3.6 mL/min/kg

CC(C)(C)NCC(O)c1ccc(O)c(CO)c1 (stereo not drawn) [ALBUTEROL]
Fh (Homo sapiens [3]): 0.88

CCN1CCCC1CNC(=O)c1cc(S(=O)(=O)CC)c(N)cc1OC (stereo not drawn) [AMISULPRIDE]
CL (Homo sapiens [2]): 3.4 mL/min/kg | Vd [4]: 5.8 L/kg

CC[C@H]1OC(=O)[C@H](C)[C@@H](O[C@H]2C[C@@](C)(OC)[C@@H](O)[C@H](C)O2)[C@H](C)[C@@H](O[C@@H]2O[C@H](C)C[C@H](N(C)C)[C@H]2O)[C@](C)(O)C[C@@H](C)CN(C)[C@H](C)[C@@H](O)[C@]1(C)O [AZITHROMYCIN]
F_fraction (Homo sapiens [1]): 0.34 | CL (Homo sapiens [2]): 9.6 mL/min/kg | CL renal (clinical): 0.5 mL/min/kg

Nc1c(CC(=O)O)cccc1C(=O)c1ccc(Br)cc1 [BROMFENAC]
F_fraction (Homo sapiens [1]): 0.67 | CL (Homo sapiens [2]): 1.3 mL/min/kg | CL renal (clinical): 0.0022 mL/min/kg

C[C@H](CS)C(=O)N1CCC[C@H]1C(=O)O [CAPTOPRIL]
F_fraction (Homo sapiens [1]): 0.62

N[C@@H](C(=O)N[C@@H]1C(=O)N2C(C(=O)O)=C(CSc3c[nH]nn3)CS[C@H]12)c1ccc(O)cc1 [CEFATRIZINE]
F_fraction (Homo sapiens [1]): 0.75 | CL (Homo sapiens [2]): 0.7 mL/min/kg

C=CC1=C(C(=O)O)N2C(=O)[C@@H](NC(=O)/C(=N\OCC(=O)O)c3csc(N)n3)[C@H]2SC1 [CEFIXIME]
F_fraction (Homo sapiens [1]): 0.47 | CL (Homo sapiens [2]): 0.6 mL/min/kg | CL renal (clinical): 0.4 mL/min/kg

Nc1ccc(S(=O)(=O)c2ccc(N)cc2)cc1 [DAPSONE]
CL (Homo sapiens [2]): 0.4 mL/min/kg | Fh (Homo sapiens [3]): 0.98

CNCCCN1c2ccccc2CCc2ccccc21 [DESIPRAMINE]
F_fraction (Homo sapiens [1]): 0.4 | Fh (Homo sapiens [3]): 0.53

O=C(O)Cc1ccccc1Nc1c(Cl)cccc1Cl [DICLOFENAC]
CL (Homo sapiens [2]): 3.5 mL/min/kg | CL renal (clinical): 0.035 mL/min/kg | Fh (Homo sapiens [3]): 0.85

COc1cccc2c1C(=O)c1c(O)c3c(c(O)c1C2=O)C[C@@](O)(C(=O)CO)C[C@@H]3O[C@H]1C[C@H](N)[C@H](O)[C@H](C)O1 [DOXORUBICIN]
F_fraction (Homo sapiens [1]): 0.05 | CL (Homo sapiens [2]): 13.2 mL/min/kg

COc1ccc(C(=O)Nc2ccccc2CCC2CCCCN2C)cc1 (stereo not drawn) [ENCAINIDE]
F_fraction (Homo sapiens [1]): 0.3 | CL (Homo sapiens [2]): 12.2 mL/min/kg | CL renal (clinical): 0.8 mL/min/kg

CC[C@H]1OC(=O)[C@H](C)[C@@H](O[C@H]2C[C@@](C)(OC)[C@@H](O)[C@H](C)O2)[C@H](C)[C@@H](O[C@@H]2O[C@H](C)C[C@H](N(C)C)[C@H]2O)[C@](C)(O)C[C@@H](C)C(=O)[C@H](C)[C@@H](O)[C@]1(C)O [ERYTHROMYCIN]
F_fraction (Homo sapiens [1]): 0.35 | CL (Homo sapiens [2]): 5.3 mL/min/kg | CL renal (clinical): 0.3 mL/min/kg

CCOC(=O)C1=C(C)NC(C)=C(C(=O)OC)C1c1cccc(Cl)c1Cl (stereo not drawn) [FELODIPINE]
F_fraction (Homo sapiens [1]): 0.16

CN1CCN(c2c(F)cc3c(=O)c(C(=O)O)cn(CCF)c3c2F)CC1 [FLEROXACIN]
CL (Homo sapiens [2]): 0.9 mL/min/kg | Vd [4]: 1.3 L/kg

Nc1nc(=O)[nH]cc1F [FLUCYTOSINE]
F_fraction (Homo sapiens [1]): 0.84 | CL (Homo sapiens [2]): 0.02 mL/min/kg

CC(C)n1c(/C=C/C(O)CC(O)CC(=O)O)c(-c2ccc(F)cc2)c2ccccc21 (stereo not drawn) [FLUVASTATIN]
Fh (Homo sapiens [3]): 0.3

O=C(O)P(=O)(O)O [FOSCARNET]
CL (Homo sapiens [2]): 0.4 mL/min/kg | Vd [4]: 0.5 L/kg

NCC1(CC(=O)O)CCCCC1 [GABAPENTIN]
F_fraction (Homo sapiens [1]): 0.6

CC(C)Cc1ccc(C(C)C(=O)O)cc1 (stereo not drawn) [IBUPROFEN]
F_fraction (Homo sapiens [1]): 0.95

O=[N+]([O-])O[C@@H]1CO[C@H]2[C@@H]1OC[C@@H]2O [ISOSORBIDE MONONITRATE]
CL (Homo sapiens [2]): 1.9 mL/min/kg | Vd [4]: 0.7 L/kg

O=C(c1ccc(F)cc1)C1CCN(CCn2c(=O)[nH]c3ccccc3c2=O)CC1 [KETANSERIN]
F_fraction (Homo sapiens [1]): 0.5 | CL (Homo sapiens [2]): 6.6 mL/min/kg | CL renal (clinical): 0.1 mL/min/kg

O=C(c1ccccc1)c1ccc2n1CCC2C(=O)O (stereo not drawn) [KETOROLAC]
F_fraction (Homo sapiens [1]): 1 | CL (Homo sapiens [2]): 0.2 mL/min/kg

Cc1c(OCC(F)(F)F)ccnc1C[S+]([O-])c1nc2ccccc2[nH]1 (stereo not drawn) [LANSOPRAZOLE]
F_fraction (Homo sapiens [1]): 0.85 | CL (Homo sapiens [2]): 4.4 mL/min/kg | CL renal (clinical): 0.044 mL/min/kg

C[C@H]1COc2c(N3CCN(C)CC3)c(F)cc3c(=O)c(C(=O)O)cn1c23.C[C@H]1COc2c(N3CCN(C)CC3)c(F)cc3c(=O)c(C(=O)O)cn1c23.O [LEVOFLOXACIN]
F_fraction (Homo sapiens [1]): 0.99 | CL (Homo sapiens [2]): 0.5 mL/min/kg
